Measurements published in patent US20070049591A1, “Inhibitors of MAPK/Erk Kinase” (KALYPSYS, INC., priority 2005, published 2007).

Target: T1, human phospho-Mek1 / non-phosphorylated Mek1 (Homo sapiens, UniProt Q02750)
T1 construct: GST (N); His6 (C); purchased Upstate 14-429 (phospho-Mek1) or 14-420 (non-phosphorylated Mek1)
Test: In vitro Mek1 Kinase Assay
Assay type: biochemical
Details: recombinant GST/His6-tagged Mek1, 2 μM ATP, 2 hours at 30° C., PKLight luminescence readout
Protocol: In vitro Mek1 Kinase Assay
2.5 μl of Mek1 kinase buffer (10 mM MOPS [pH 7.2], 25 mM sodium glycerophosphate, 5 mM EGTA [pH 8.0], 1 mM sodium orthovanadate, 1 mM dithiothreitol, 10 mM MgCl2, 0.1% Brij-35, 0.3 mg/ml bovine serum albumin) containing either 5 ng of high specific activity, recombinant N-terminal GST-tagged, C-terminal His6-tagged human phospho-Mek1 (Upstate Cat. 14-429), or 200 ng of low specific activity, non-phosphorylated Mek1 (Upstate Cat. 14-420), is dispensed into one well of a 1536 multi-well white solid plate. 50 nl of 100× concentration of test compound in dimethyl sulfoxide (DMSO) is dispensed to the well by passive pin transfer and incubated for 15 minutes at room temperature (22° C.). 2.5 μl of Mek1 kinase buffer containing 2 μM ATP is then dispensed and the kinase reaction is allowed to incubate at 30° C. for 2 hours. The assay plates are lidded and maintained in a humidified environment. After 2 hours, 2.5 μl of PKLight protein kinase assay reagent (Cambrex) is dispensed. After an additional 5 minute incubation at room temperature, luminescence activity is measured on a suitable multi-mode plate reader. Inhibition of Mek1 kinase causes an associated increase in luminescence activity that is proportional to compound concentration. Negative control activity is measured with DMSO lacking any test compound. Positive control activity is measured with (R)—N— (2,3-dihydroxypropoxy)-3,4-fluoro4-iodophenylamino)benzamide [Thompson, N. and Lyons, J., Curr Opin Pharmacol, 5:350-356, 2005 (PD-0325901)]. Efficacy is measured as a percentage of positive control activity.

T1 sequence (Q02750 whole entry): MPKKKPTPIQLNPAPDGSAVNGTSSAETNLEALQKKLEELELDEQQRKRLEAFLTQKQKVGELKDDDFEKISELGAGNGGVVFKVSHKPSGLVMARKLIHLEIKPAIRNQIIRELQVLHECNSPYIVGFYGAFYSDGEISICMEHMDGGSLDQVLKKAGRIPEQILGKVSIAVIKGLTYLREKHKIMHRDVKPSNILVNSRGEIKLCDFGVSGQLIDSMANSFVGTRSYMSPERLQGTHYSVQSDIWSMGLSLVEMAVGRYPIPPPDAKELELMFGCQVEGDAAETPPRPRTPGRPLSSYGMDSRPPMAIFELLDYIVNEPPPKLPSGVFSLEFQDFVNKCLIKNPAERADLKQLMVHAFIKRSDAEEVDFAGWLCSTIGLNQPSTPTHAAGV

`c1ccc2c(c1)[nH]c1ncnc(N3CCOCC3)c12` [Example 1, 4-(9H-pyrimido[4,5-b]indol-4-yl)morpholine] and `c1ccc2c(c1)CCN2c1ncnc2[nH]cnc12` [Example 5, 6-(indolin-1-yl)-9H-purine] cannot be ordered by IC50: ≤ 10 µM for the first, > 10 µM for the second.

`Cc1c([N+](=O)[O-])c2ccc(O)cc2n1-c1ccccc1` [Example 2, 2-methyl-3-nitro-1-phenyl-1H-indol-6-ol] and `COc1cc(OC)c2c(c1)ncc1c(C)nn(-c3ccccc3)c12` [Example 7, 7,9-dimethoxy-3-methyl-1-phenyl-1H-pyrazolo[4,3-c]quinoline] cannot be ordered by IC50: ≤ 10 µM for the first, ≤ 10 µM for the second.

`CC(C)(C)n1nc(-c2ccc(F)cc2)c2c(N)ncnc21` [Example 3, 1-tert-butyl-3-(4-fluorophenyl)-1H-pyrazolo[3,4-d]pyrimidin-4-amine] and `O=C(O)c1ccc(-c2cnc3ccc(NCc4ccc(F)cc4)nn23)cc1` [Example 10, 4-(6-(4-fluorobenzylamino)imidazo[1,2-b]pyridazin-3-yl)benzoic acid] cannot be ordered by IC50: ≤ 10 µM for the first, ≤ 10 µM for the second.

`CCN(c1ncnc2[nH]cnc12)C1CCCCC1` [Example 4, N-cyclohexyl-N-ethyl-9H-purin-6-anime] and `c1nc(NC2CCCC2)c2nc[nH]c2n1` [Example 16, N-cyclopentyl-9H-purin-6-amine] cannot be ordered by IC50: ≤ 10 µM for the first, > 10 µM for the second.

`CC1CCN(c2ncnc3[nH]cnc23)CC1` [Example 6, 6-(4-methylpiperidin-1-yl)-9H-purine] and `c1nc2nc[nH]c(NC3CCCCCC3)c-2n1` [Example 17, N-cycloheptyl-9H-purin-6-amine] cannot be ordered by IC50: > 10 µM for the first, > 10 µM for the second.

`CC(=O)c1ccc(-c2cnc3ccc(NCc4cccs4)nn23)s1` [Example 8, 1-(5-(6-(thiophen-2-ylmethylamino)imidazo[1,2-b]pyridazin-3-yl)thiophen-2-yl)ethanone] and `O=C(O)c1ccc(-c2cnc3ccc(NCc4cccs4)nn23)cc1` [Example 9, 4-(6-(thiophen-2-ylmethylamino)imidazo[1,2-b]pyridazin-3-yl)benzoic acid] cannot be ordered by IC50: > 10 µM for the first, ≤ 10 µM for the second.

`Cn1cc(-c2cnc3ccc(NCc4cccs4)nn23)cn1` [Example 11] and `CCCNc1ccc2ncc(-c3ccc(C(=O)O)cc3)n2n1` [Example 22, 4-(6-(propylamino)imidazo[1,2-b]pyridazin-3-yl)benzoic acid] cannot be ordered by IC50: ≤ 10 µM for the first, > 10 µM for the second.

`N#Cc1ccc(-c2cnc3ccc(NC4CCOCC4)nn23)cc1` [Example 12, 4-(6-(tetrahydro-2H-pyran-4-ylamino)imidazo[1,2-b]pyridazin-3-yl)benzonitrile] and `O=C(O)c1ccc(-c2cnc3ccc(NC4CCOCC4)nn23)cc1` [Example 13, 4-(6-(tetrahydro-2H-pyran-4-ylamino)imidazo[1,2-b]pyridazin-3-yl)benzoic acid] cannot be ordered by IC50: ≤ 10 µM for the first, ≤ 10 µM for the second.

`COc1cncc(-c2cnc3ccc(NC4CCOCC4)nn23)c1` [Example 14, 3-(5-methoxypyridin-3-yl)-N-(tetrahydro-2H-pyran-4-yl)imidazo[1,2-b]pyridazin-6-amine] and `O=C(O)c1ccc(-c2cnc3ccc(NC4CCC(O)CC4)nn23)cc1` (stereo not shown) [Example 15, 4-(6-(4-hydroxycyclohexylamino)imidazo[1,2-b]pyridazin-3-yl)benzoic acid] cannot be ordered by IC50: > 10 µM for the first, ≤ 10 µM for the second.

`N#Cc1ccc(-c2cnc3ccc(NCCCO)nn23)cc1` [Example 18, 4-(6-(3-hydroxypropylamino)imidazo [1,2-b]pyridazin-3-yl)benzonitrile] and `N#Cc1ccc(-c2cnc3ccc(NCCc4ccccn4)nn23)cc1` [Example 19, 4-(6-(2-(pyridin-2-yl)ethylamino)imidazo[1,2-b]pyridazin-3-yl)benzonitrile] cannot be ordered by IC50: ≤ 10 µM for the first, ≤ 10 µM for the second.

`N#Cc1ccc(-c2cnc3ccc(NCCc4cccnc4)nn23)cc1` [Example 20, 4-(6-(2-(pyridin-3-yl)ethylamino)imidazo[1,2-b]pyridazin-3-yl)benzonitrile] and `CN(C)CCNc1ccn2ncc(-c3ccc(Cl)cc3)c2n1` [Example 21, N1-(3-(4-chlorophenyl)pyrazolo[1,5-a]pyrimidin-5-yl)-N2,N2-dimethylethane-1,2-diamine] cannot be ordered by IC50: ≤ 10 µM for the first, > 10 µM for the second.
